# Test results reported in ChEMBL document CHEMBL1201862, “PubChem BioAssay data set” (2004).
#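 Five concentrations, 48 hours, 96-well plates. GI50 is the concentration that inhibits growth by half.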 Active and inactive are the calls of the source. Cut-off read from the data, not from the text of the source: active = GI50 up to about 1.1 µM and inactive = higher.
# Experiments:
# Experiment in all cases: NCI anticancer screen, dose series, 48 h
# [1] = system: 786-0
# [2] = system: A498
# [3] = system: A549
# [4] = system: ACHN
# [5] = system: CAKI-1
# [6] = system: CCRF-CEM
# [7] = system: COLO 205
# [8] = system: DU-145
# [9] = system: EKVX
# [10] = system: HCC 2998
# [11] = system: HCT-116
# [12] = system: HCT-15
# [13] = system: HL-60
# [14] = system: HOP-62
# [15] = system: HOP-92
# [16] = system: HT-29
# [17] = system: Hs-578T
# [18] = system: IGROV-1
# [19] = system: K562
# [20] = system: KM12
# [21] = system: LOX IMVI
# [22] = system: M14
# [23] = system: MCF7
# [24] = system: MDA-MB-231
# [25] = system: MDA-MB-435
# [26] = system: MDA-N
# [27] = system: MOLT-4
# [28] = system: Malme-3M
# [29] = system: NCI-H226
# [30] = system: NCI-H23
# [31] = system: NCI-H460
# [32] = system: NCI-H522
# [33] = system: NCI/ADR-RES
# [34] = system: OVCAR-3
# [35] = system: OVCAR-4
# [36] = system: OVCAR-5
# [37] = system: OVCAR-8
# [38] = system: PC-3
# [39] = system: RPMI-8226
# [40] = system: RXF 393
# [41] = system: SF-268
# [42] = system: SF-295
# [43] = system: SF-539
# [44] = system: SK-MEL-28
# [45] = system: SK-MEL-5
# [46] = system: SK-OV-3
# [47] = system: SN12C
# [48] = system: SNB-19
# [49] = system: SNB-75
# [50] = system: SW-620
# [51] = system: T47D
# [52] = system: TK-10
# [53] = system: U-251
# [54] = system: UACC-257
# [55] = system: UACC-62
# [56] = system: SK-MEL-2
# [57] = system: SR
# [58] = system: UO-31
compound,measurement,setting,value
COc1cc(C2c3cc4c(cc3OC(NNS(=O)(=O)c3ccc(C)cc3)C2C)OCO4)cc(OC)c1O (stereo not given),GI50,[1],16.6 µM (inactive)
same,GI50,[2],7.98 µM (inactive)
same,GI50,[3],11.7 µM (inactive)
same,GI50,[4],7.98 µM (inactive)
same,GI50,[5],12.8 µM (inactive)
same,GI50,[6],7.94 µM (inactive)
same,GI50,[7],19.2 µM (inactive)
same,GI50,[8],33.8 µM (inactive)
same,GI50,[9],11.7 µM (inactive)
same,GI50,[10],23.7 µM (inactive)
same,GI50,[11],9.44 µM (inactive)
same,GI50,[12],8.32 µM
same,GI50,[13],9.33 µM (inactive)
same,GI50,[14],10.4 µM (inactive)
same,GI50,[15],14.5 µM (inactive)
same,GI50,[16],23.4 µM (inactive)
same,GI50,[17],16.9 µM (inactive)
same,GI50,[18],9.25 µM (inactive)
same,GI50,[19],4.61 µM (inactive)
same,GI50,[20],8.81 µM (inactive)
same,GI50,[21],12 µM (inactive)
same,GI50,[22],15.6 µM (inactive)
same,GI50,[23],6.24 µM (inactive)
same,GI50,[24],12.3 µM (inactive)
same,GI50,[25],3.21 µM (inactive)
same,GI50,[26],5.21 µM (inactive)
same,GI50,[27],2.52 µM (inactive)
same,GI50,[28],5.85 µM (inactive)
same,GI50,[29],9.16 µM (inactive)
same,GI50,[30],9.89 µM (inactive)
same,GI50,[31],5.85 µM (inactive)
same,GI50,[32],25 µM (inactive)
same,GI50,[33],6.68 µM (inactive)
same,GI50,[34],13.7 µM (inactive)
same,GI50,[35],6.32 µM (inactive)
same,GI50,[36],33.9 µM (inactive)
same,GI50,[37],6.82 µM (inactive)
same,GI50,[38],3.87 µM (inactive)
same,GI50,[39],10.1 µM (inactive)
same,GI50,[40],10.5 µM (inactive)
same,GI50,[41],14.8 µM (inactive)
same,GI50,[42],3.52 µM (inactive)
same,GI50,[43],6.53 µM (inactive)
same,GI50,[44],28.9 µM (inactive)
same,GI50,[45],9.75 µM (inactive)
same,GI50,[46],11.3 µM (inactive)
same,GI50,[47],19 µM (inactive)
same,GI50,[48],16.2 µM (inactive)
same,GI50,[49],3.61 µM (inactive)
same,GI50,[50],24.3 µM (inactive)
same,GI50,[51],10.1 µM (inactive)
same,GI50,[52],5.41 µM (inactive)
same,GI50,[53],8.17 µM (inactive)
same,GI50,[54],5.06 µM (inactive)
same,GI50,[55],15.2 µM (inactive)
COc1ccc(C(OC(C)=O)C2C(=C(C#N)C#N)c3ccccc3C2=C(C#N)C#N)cc1 (stereo not given),GI50,[1],60.4 µM (inactive)
same,GI50,[2],24.1 µM (inactive)
same,GI50,[4],36.4 µM (inactive)
same,GI50,[5],39.6 µM (inactive)
same,GI50,[6],21.8 µM (inactive)
same,GI50,[8],64.9 µM (inactive)
same,GI50,[9],39.4 µM (inactive)
same,GI50,[10],22.6 µM (inactive)
same,GI50,[11],35.1 µM (inactive)
same,GI50,[12],31.2 µM
same,GI50,[13],18.5 µM (inactive)
same,GI50,[14],20.8 µM (inactive)
same,GI50,[15],45.1 µM (inactive)
same,GI50,[16],29.9 µM (inactive)
same,GI50,[17],35.6 µM (inactive)
same,GI50,[18],65.6 µM (inactive)
same,GI50,[19],30.1 µM (inactive)
same,GI50,[20],43.7 µM (inactive)
same,GI50,[21],33.9 µM (inactive)
same,GI50,[22],40.7 µM (inactive)
same,GI50,[23],48.3 µM (inactive)
same,GI50,[24],39.5 µM (inactive)
same,GI50,[25],36.7 µM (inactive)
same,GI50,[26],42.1 µM (inactive)
same,GI50,[27],25.9 µM (inactive)
same,GI50,[29],38.6 µM (inactive)
same,GI50,[30],25.9 µM (inactive)
same,GI50,[31],28.1 µM (inactive)
same,GI50,[32],38.2 µM (inactive)
same,GI50,[33],50.1 µM (inactive)
same,GI50,[34],21.6 µM (inactive)
same,GI50,[35],32.4 µM (inactive)
same,GI50,[36],17.2 µM (inactive)
same,GI50,[37],60.7 µM (inactive)
same,GI50,[38],21.8 µM (inactive)
same,GI50,[39],25.5 µM (inactive)
same,GI50,[40],67.9 µM (inactive)
same,GI50,[41],35.6 µM (inactive)
same,GI50,[42],19.9 µM (inactive)
same,GI50,[43],20.6 µM (inactive)
same,GI50,[44],67.3 µM (inactive)
same,GI50,[56],27.7 µM (inactive)
same,GI50,[45],48 µM (inactive)
same,GI50,[46],18.6 µM (inactive)
same,GI50,[49],36.1 µM (inactive)
same,GI50,[57],16.1 µM (inactive)
same,GI50,[50],36.8 µM (inactive)
same,GI50,[51],70 µM (inactive)
same,GI50,[52],83.9 µM (inactive)
same,GI50,[53],41.9 µM (inactive)
same,GI50,[54],> 100 µM (inactive)
same,GI50,[58],28 µM (inactive)
O=C(Sc1c(-c2ccccc2)c(=O)n(-c2ccccc2)c(=S)n1-c1ccccc1)c1ccc(Cl)cc1,GI50,[1],> 100 µM (inactive)
same,GI50,[2],98.9 µM (inactive)
same,GI50,[3],> 100 µM (inactive)
same,GI50,[4],> 100 µM (inactive)
same,GI50,[5],> 100 µM (inactive)
same,GI50,[6],32.5 µM (inactive)
same,GI50,[7],> 100 µM (inactive)
same,GI50,[8],> 100 µM (inactive)
same,GI50,[9],> 100 µM (inactive)
same,GI50,[10],> 100 µM (inactive)
same,GI50,[11],> 100 µM (inactive)
same,GI50,[12],> 100 µM
same,GI50,[13],> 100 µM (inactive)
same,GI50,[14],> 100 µM (inactive)
same,GI50,[15],55.6 µM (inactive)
same,GI50,[16],> 100 µM (inactive)
same,GI50,[17],> 100 µM (inactive)
same,GI50,[18],63 µM (inactive)
same,GI50,[19],75 µM (inactive)
same,GI50,[20],> 100 µM (inactive)
same,GI50,[21],> 100 µM (inactive)
same,GI50,[22],> 100 µM (inactive)
same,GI50,[23],74.3 µM (inactive)
same,GI50,[24],55.8 µM (inactive)
same,GI50,[25],> 100 µM (inactive)
same,GI50,[26],> 100 µM (inactive)
same,GI50,[27],49.3 µM (inactive)
same,GI50,[28],> 100 µM (inactive)
same,GI50,[29],> 100 µM (inactive)
same,GI50,[30],> 100 µM (inactive)
same,GI50,[31],> 100 µM (inactive)
same,GI50,[32],81.5 µM (inactive)
same,GI50,[33],> 100 µM (inactive)
same,GI50,[34],> 100 µM (inactive)
same,GI50,[35],> 100 µM (inactive)
same,GI50,[36],> 100 µM (inactive)
same,GI50,[37],> 100 µM (inactive)
same,GI50,[40],> 100 µM (inactive)
same,GI50,[41],> 100 µM (inactive)
same,GI50,[42],> 100 µM (inactive)
same,GI50,[43],> 100 µM (inactive)
same,GI50,[44],> 100 µM (inactive)
same,GI50,[46],> 100 µM (inactive)
same,GI50,[47],> 100 µM (inactive)
same,GI50,[48],> 100 µM (inactive)
same,GI50,[49],> 100 µM (inactive)
same,GI50,[57],> 100 µM (inactive)
same,GI50,[50],> 100 µM (inactive)
same,GI50,[51],71 µM (inactive)
same,GI50,[52],> 100 µM (inactive)
same,GI50,[53],> 100 µM (inactive)
same,GI50,[54],> 100 µM (inactive)
same,GI50,[55],> 100 µM (inactive)
